Earlier results in patent US10226042B2, “Synergistic pre-emergent and post-emergent weed control compositions and methods of use thereof” (BAYER INTELLECTUAL PROPERTY GMBH, priority 2009, dated 2019).

Conditions: stated in words, no test described

Structure (SMILES) | water solubility
O=C(O)COc1ccc(Cl)cc1Cl [2,4-D] | water soluble
COc1c(Cl)ccc(Cl)c1C(=O)O [dicamba] | water soluble
